Assay results as given in patent US20250388597A1, “BIFUNCTIONAL PHOTOCROSSLINKING PROBES FOR COVALENT CAPTURE OF PROTEIN-NUCLEIC ACID COMPLEXES IN CELLS” (UNIVERSITY OF SOUTHERN CALIFORNIA, priority 2022, published 2025).

How the values were obtained:
[1] = tested on: MEF2A/DNA complexes in GM12878 cells; assay: Capture of MEF2A/DNA complexes in GM12878 nuclei, western blot; format: cell-based; conditions: probe 10 μM + UV365 10 min
Description: FIG. 10A depicts Western blot analysis of presence of complexing of MEF2A with DNA in GM12878 cells treated with UV365 and SPB-PEG3-AAD. For each lane, one million of GM12878 cells were used. The nuclei of the cells were extracted and resuspended in 500 μl PBS, treated with various combination of SPB-PEG3-AAD (10 μM) and/or UV365 (10 min, 30 W, LED, sample distance 3 cm, cooling at 4-degree C.). The samples were then sonicated using covaries (1 min) followed by limited MNase digestion (10 min, 37-degree C.). The lysed and partially digested samples were then mixed with SDS loading dye (2% SDS, boil for 10 min) and run on SDS gel for western blot analyses of MEF2A using Anti-MEF2 antibody (B-4) (SCBT, cat #sc-17785).
We tested the capture of MEF2A/DNA complexes in the GM12878 cell line, a Tier 1 ENCODE cell line with rich genomics data.

[2] = target: T1, FOXP3 covalently linked to genomic DNA in HEK293T cells (Homo sapiens, UniProt Q9BZS1); assay: TRIzol extraction of genomic DNA from BFPX-treated HEK293T cells, Benzonase digestion, anti-FLAG western blot; format: cell-based; conditions: probe 100 μM + UV (lanes 4 and 5) vs controls (lane 1-3)
T1 construct: AVI tag (N); TEV site (N); expressed in transfected cells; host or cells: HEK293T
T1 sequence (Q9BZS1 1-431): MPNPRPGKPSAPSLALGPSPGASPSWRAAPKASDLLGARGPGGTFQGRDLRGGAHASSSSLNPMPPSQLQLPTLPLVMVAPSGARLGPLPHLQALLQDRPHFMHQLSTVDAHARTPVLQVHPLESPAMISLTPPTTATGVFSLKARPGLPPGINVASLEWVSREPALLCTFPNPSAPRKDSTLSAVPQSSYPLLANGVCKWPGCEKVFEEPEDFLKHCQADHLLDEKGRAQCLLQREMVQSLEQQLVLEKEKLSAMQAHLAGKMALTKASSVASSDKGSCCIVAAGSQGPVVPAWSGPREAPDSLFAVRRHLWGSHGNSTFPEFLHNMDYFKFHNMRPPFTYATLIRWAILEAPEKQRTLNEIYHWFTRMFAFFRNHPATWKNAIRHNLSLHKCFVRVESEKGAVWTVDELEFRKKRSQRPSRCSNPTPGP
Description: FIG. 14D depicts for the same BFPX-treated HEK293T cells transfected with AVI-TEV-FLAG-FOXP3 described in (FIG. 14C), TRIzol was used to extract genomic DNA. Briefly, for each aliquot of 0.25 million of cells, lyse and homogenize the sample in 200 μl TRIzol™ Reagent. Incubate for 5 minutes to permit complete dissociation of the nucleoproteins complex. 40 μl of chloroform was then added to the sample to incubate for 3 min. The sample was then centrifuged for 15 minutes at 12,000×g at 4° C. to separate into a lower red phenol/chloroform-interphase layer and a colorless upper aqueous phase. The upper aqueous phase was removed by pipetting. […] Run at 200V for 40 minutes on 4%-15% SDS-PAGE gel and analyzed by western blot (Transfer at 20V (40 mA) overnight, block in 2% BSA in PBS for 45 min, Primary antibody: 1:2000 anti-FLAG; room temperature, 2 hr; Secondary antibody: anti mouse light chain kappa 1:100,000; SuperSignal™ Western Blot Substrate Bundle, Femto).
TRIzol uses strong denaturing reagent (e.g. 4 M guanidine thiocyanate) to lyse the cells and completely dissociate nucleoprotein complexes. The extracted genomic DNA was then digested extensively with Benzonase and analyzed by SDS PAGE gel and western blot. […]

FOXP3 co-extracted with genomic DNA under strong denaturing conditions [2]	Compound	capture of MEF2A complexes [1]
–	C#CCCC1(CCNC(=O)CCOCCOCCOCCC(=O)NCCNC(=O)CCCOc2c3occc3cc3ccc(=O)oc23)N=N1 [SPB-PEG3-AAD]	could capture MEF2 complexes in the nucleus
showed FOXP3 proteins	C#CCCC1(CCNC(=O)CCCOc2c3occc3cc3ccc(=O)oc23)N=N1 [SPB-AAD, N-(2-(3-(but-3-yn-1-yl)-3H-diazirin-3-yl)ethyl)-4-((7-oxo-7H-furo[3,2-g]chromen-9-yl)oxy)butanamide]	–
